Experimental data published in ChEMBL document CHEMBL5614450, “SAR Study of 4,8-Disubstituted Pyrimido[5,4-d]pyrimidines Exhibiting Antitrypanosomal and Antileishmanial Activity” (ACS Med Chem Lett, 2024).

What was measured:
[1] = tested on: Trypanosoma brucei; experiment: Anti-trypanosomal activity against trypomastigote blood stage of Trypanosoma brucei Lister 427 assessed as inhibition of parasite growth incubated for 72 hrs by resazurin-dye based assay; format: functional, organism-based; conditions: Lister 427, 72 h
[2] = Cytotoxicity against human THP-1 cells assessed as reduction in cell viability incubated for 72 hrs by MTT assay; format: toxicity, cell-based
[3] = Selectivity index, ratio of CC50 for cytotoxicity against human THP-1 cells to IC50 for anti-trypanosomal activity against trypomastigote blood stage of Trypanosoma brucei Lister 427; format: toxicity, cell-based; conditions: read-out: Ratio CC50/IC50
[4] = tested on: Leishmania infantum; experiment: Anti-leishmanial activity against promastigote stage of Leishmania infantum MHOM/MA/67/ITMAP-263 assessed as inhibition of parasite growth at 10 uM incubated for 72 hrs by resazurin-dye based assay; format: functional
[5] = Cytotoxicity against human A549 cells assessed as reduction in cell viability at 10 uM incubated for 24 hrs by Cell-Titer Glo luminescence assay; format: toxicity, cell-based; conditions: read-out: INH
[6] = Cytotoxicity against human HEK293 cells assessed as reduction in cell viability at 10 uM incubated for 24 hrs by Cell-Titer Glo luminescence assay; format: toxicity, cell-based; conditions: read-out: INH
[7] = target: CYP3A4 (Homo sapiens, UniProt P08684); experiment: Inhibition of human CYP3A4 expressed in insect cell microsomes at 10 uM preincubated for 20 mins followed by NADP+ and substrate addition and measured after 10 mins by fluorescence based analysis; format: ADME, Microsome; conditions: recombinant human CYP3A4 expressed in insect cell microsomes, time 30 min
Sequence of CYP3A4 (P08684 whole entry): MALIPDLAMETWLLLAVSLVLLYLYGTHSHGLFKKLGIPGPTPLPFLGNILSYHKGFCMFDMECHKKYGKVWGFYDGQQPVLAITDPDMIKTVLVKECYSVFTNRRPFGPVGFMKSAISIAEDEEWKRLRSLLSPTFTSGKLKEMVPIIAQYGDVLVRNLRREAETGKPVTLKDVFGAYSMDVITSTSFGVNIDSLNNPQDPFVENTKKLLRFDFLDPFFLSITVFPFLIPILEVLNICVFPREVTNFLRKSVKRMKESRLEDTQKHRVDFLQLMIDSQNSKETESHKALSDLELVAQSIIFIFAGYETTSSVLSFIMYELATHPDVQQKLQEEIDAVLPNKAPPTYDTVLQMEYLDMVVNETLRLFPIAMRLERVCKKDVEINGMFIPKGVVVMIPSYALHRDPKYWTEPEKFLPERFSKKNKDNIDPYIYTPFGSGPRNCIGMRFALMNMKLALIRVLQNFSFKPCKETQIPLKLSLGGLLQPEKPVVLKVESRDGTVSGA

[8] = target: hERG (KCNH2) (Homo sapiens, UniProt Q12809); experiment: Displacement of tracer from hERG extracted from membrane at 10 uM incubated for 2 hrs by fluorescence polarization assay; format: toxicity, cell membranes; conditions: hERG membrane preparation, probe tracer (not named)
Sequence of hERG (KCNH2) (Q12809 whole entry): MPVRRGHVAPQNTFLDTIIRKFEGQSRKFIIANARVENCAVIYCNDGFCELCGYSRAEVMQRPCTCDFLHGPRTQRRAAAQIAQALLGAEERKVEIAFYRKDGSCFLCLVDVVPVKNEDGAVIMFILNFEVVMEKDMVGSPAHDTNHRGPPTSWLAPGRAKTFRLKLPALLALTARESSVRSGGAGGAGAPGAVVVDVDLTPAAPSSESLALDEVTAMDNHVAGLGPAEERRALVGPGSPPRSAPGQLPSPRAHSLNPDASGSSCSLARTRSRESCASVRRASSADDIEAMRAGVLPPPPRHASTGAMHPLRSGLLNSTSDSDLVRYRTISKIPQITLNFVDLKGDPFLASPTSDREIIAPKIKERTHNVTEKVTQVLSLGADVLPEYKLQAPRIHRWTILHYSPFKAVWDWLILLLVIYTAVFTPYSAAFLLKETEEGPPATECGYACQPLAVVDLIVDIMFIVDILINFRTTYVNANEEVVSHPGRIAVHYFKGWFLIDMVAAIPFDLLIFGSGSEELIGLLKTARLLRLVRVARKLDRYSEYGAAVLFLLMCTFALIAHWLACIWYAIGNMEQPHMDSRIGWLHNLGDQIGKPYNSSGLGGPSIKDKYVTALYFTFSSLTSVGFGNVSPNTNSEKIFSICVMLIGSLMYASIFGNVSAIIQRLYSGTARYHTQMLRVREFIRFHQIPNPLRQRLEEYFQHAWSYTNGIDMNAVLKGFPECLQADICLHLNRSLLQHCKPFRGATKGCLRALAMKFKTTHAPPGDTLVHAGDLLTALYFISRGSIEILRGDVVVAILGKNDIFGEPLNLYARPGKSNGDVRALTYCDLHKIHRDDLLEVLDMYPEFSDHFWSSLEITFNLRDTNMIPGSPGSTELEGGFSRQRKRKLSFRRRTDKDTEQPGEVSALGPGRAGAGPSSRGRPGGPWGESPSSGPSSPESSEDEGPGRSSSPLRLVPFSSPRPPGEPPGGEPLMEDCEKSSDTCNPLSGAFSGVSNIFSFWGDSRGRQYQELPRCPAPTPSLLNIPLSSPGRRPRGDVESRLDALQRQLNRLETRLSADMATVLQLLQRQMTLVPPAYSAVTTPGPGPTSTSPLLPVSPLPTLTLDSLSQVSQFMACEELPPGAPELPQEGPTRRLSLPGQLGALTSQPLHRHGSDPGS

[9] = tested on: Leishmania infantum; experiment: Anti-leishmanial activity against promastigote stage of Leishmania infantum MHOM/MA/67/ITMAP-263 assessed as inhibition of parasite growth incubated for 72 hrs by resazurin-dye based assay; format: functional, organism-based; conditions: MHOM/MA/67/ITMAP-263, 72 h
[10] = tested on: Leishmania infantum; experiment: Anti-leishmanial activity against luciferase expressing intracellular amastigote stage of Leishmania infantum MHOM/MA/67/ITMAP-263 infected in human THP-1 cells assessed as inhibition of parasite growth at 10 uM incubated for 72 hrs by Steady-Glo luciferase assay; format: functional; conditions: MHOM/MA/67/ITMAP-263, THP-1
[11] = Selectivity index, ratio of CC50 for cytotoxicity against human THP-1 cells to IC50 for anti-leishmanial activity against promastigote stage of Leishmania infantum MHOM/MA/67/ITMAP-263; format: toxicity, cell-based; conditions: read-out: Ratio CC50/IC50
[12] = tested on: Leishmania infantum; experiment: Anti-leishmanial activity against luciferase expressing intracellular amastigote stage of Leishmania infantum MHOM/MA/67/ITMAP-263 infected in human THP-1 cells assessed as inhibition of parasite growth incubated for 72 hrs by Steady-Glo luciferase assay; format: functional, organism-based; conditions: MHOM/MA/67/ITMAP-263, THP-1, 72 h
[13] = Selectivity index, ratio of CC50 for cytotoxicity against human THP-1 cells to IC50 for anti-leishmanial activity against luciferase expressing intracellular amastigote stage of Leishmania infantum MHOM/MA/67/ITMAP-263 infected in human THP-1 cells; format: toxicity, cell-based; conditions: read-out: Ratio CC50/IC50

Row | SMILES | IC50 [1] | inhibition at 10 min, 10 µM [7] | CC50 at 72 h [2] | selectivity ratio [3] | inhibition at 10 µM [4] | cytotoxicity at 24 h, 10 µM [5] | cytotoxicity at 24 h, 10 µM [6] | inhibition at 2 h, 10 µM [8] | IC50 [9] | inhibition at 10 µM [10] | selectivity ratio [11] | IC50 [12] | selectivity ratio [13]
1 | Oc1ccc(/C=N/Nc2ncnc3c(Nc4ccc(Cl)c(C(F)(F)F)c4)ncnc23)cc1O | 430 nM | 0% | > 10 µM | > 23 | 5% | 15% | 3% | 29% |  |  |  |  | 
2 | NNc1ncnc2c(Nc3ccc(OC(F)(F)F)cc3)ncnc12 | 180 nM | 20% | > 10 µM | > 55 | 18% | 17% | 17% | 30% |  |  |  |  | 
3 | Oc1ccc(/C=N/Nc2ncnc3c(Nc4ccc(F)c(Cl)c4)ncnc23)cc1O | 590 nM | 25% | > 50 µM | > 85 | 13% | -6% | -6% | 7% |  |  |  |  | 
4 | CCCCCCCCCCCCCCCCOP(=O)([O-])OCC[N+](C)(C)C [MILTEFOSINE] |  |  |  |  | 97% |  |  |  | 11900 nM | 99% | 2.5 | 0.71 µM | 42
5 | COc1cccc(Nc2ncnc3c(N/N=C/c4cc(O)c(O)c(O)c4)ncnc23)c1 | 2710 nM | 0% | > 100 µM | > 37 | 95% | -6% | 8% | 34% | 450 nM | 4% | > 221 |  | 
6 | COc1ccc(Nc2ncnc3c(NN)ncnc23)cc1 | 710 nM | 12% | > 50 µM | > 71 | 99% | -14% | -7% | 7% | 720 nM | < 0% | 69 |  | 
7 | COc1ccc(/C=N/Nc2ncnc3c(Nc4ccc(F)c(Cl)c4)ncnc23)cc1O | 5810 nM | 20% | > 10 µM | > 2 | 13% | -9% | -3% | -7% |  |  |  |  | 
8 | N=C(N)c1ccc(OCCCCCOc2ccc(C(=N)N)cc2)cc1 [PENTAMIDINE] | 3 nM |  | < 10 µM |  |  |  |  |  |  |  |  |  | 
9 | Oc1cc(/C=N/Nc2ncnc3c(Nc4ccc(Cl)c(C(F)(F)F)c4)ncnc23)cc(O)c1O | 2760 nM | 11% | > 10 µM | > 4 | < 0% | -4% | -2% | 49% |  |  |  |  | 
10 | COc1cccc(Nc2ncnc3c(NN)ncnc23)c1 | 110 nM | 65% | > 50 µM | > 438 | 99% | 16% | 12% | 14% | 280 nM | < 0% | 178 |  | 
11 | COc1cc(/C=N/Nc2ncnc3c(Nc4ccc(F)c(Cl)c4)ncnc23)ccc1O | 260 nM | 24% | > 50 µM | > 196 | 19% | 2% | 13% | 7% |  |  |  |  | 
12 | Oc1cc(/C=N/Nc2ncnc3c(Nc4ccc(F)c(Cl)c4)ncnc23)cc(O)c1O | 380 nM | 0% | > 10 µM | > 26 | 0% | 27% | 24% | 62% |  |  |  |  | 

The next lines start with results.

Row | IC50 [1] | inhibition at 10 min, 10 µM [7] | SMILES | CC50 at 72 h [2] | selectivity ratio [3] | inhibition at 10 µM [4] | cytotoxicity at 24 h, 10 µM [5] | cytotoxicity at 24 h, 10 µM [6] | inhibition at 2 h, 10 µM [8] | IC50 [9] | inhibition at 10 µM [10] | selectivity ratio [11] | IC50 [12] | selectivity ratio [13]
13 | 1760 nM | 20% | COc1cc(/C=N/Nc2ncnc3c(Nc4ccc(Cl)c(C(F)(F)F)c4)ncnc23)cc(OC)c1OC | > 10 µM | > 6 | 22% | -7% | -2% | 24% |  |  |  |  | 
14 | 160 nM | 21% | Oc1cc(/C=N/Nc2ncnc3c(Nc4ccc(OC(F)(F)F)cc4)ncnc23)cc(O)c1O | > 10 µM | > 64 | 5% | 9% | 7% | 30% |  |  |  |  | 
15 | 8720 nM | 30% | COc1cc(/C=N/Nc2ncnc3c(Nc4ccc(F)c(Cl)c4)ncnc23)cc(OC)c1OC | > 10 µM | > 1 | 20% | 14% | 14% | 5% |  |  |  |  | 
16 | 180 nM | 0% | COc1cc(/C=N/Nc2ncnc3c(Nc4ccc(OC(F)(F)F)cc4)ncnc23)ccc1O | > 10 µM | > 54 | 50% | 38% | 19% | 64% | 8750 nM | < 0% | 1 |  | 
17 | 390 nM | 11% | COc1cc(/C=N/Nc2ncnc3c(Nc4ccc(OC(F)(F)F)cc4)ncnc23)cc(OC)c1OC | > 10 µM | > 26 | 24% | 6% | 2% | 21% |  |  |  |  | 
18 | 1440 nM | 27% | COc1ccc(/C=N/Nc2ncnc3c(Nc4ccc(Cl)c(C(F)(F)F)c4)ncnc23)cc1O | > 10 µM | > 7 | 12% | 3% | -3% | 7% |  |  |  |  | 
19 | 5630 nM | 19% | COc1cc(/C=N/Nc2ncnc3c(Nc4ccc(Cl)c(C(F)(F)F)c4)ncnc23)cc(OC)c1O | > 10 µM | > 2 | 9% | -2% | -1% | 3% |  |  |  |  | 
20 | 5830 nM | 32% | COc1cc(/C=N/Nc2ncnc3c(Nc4ccc(F)c(Cl)c4)ncnc23)cc(OC)c1O | > 100 µM | > 17 | < 0% | 5% | 11% | 38% |  |  |  |  | 
21 | 1320 nM | 0% | COc1cccc(Nc2ncnc3c(N/N=C/c4ccc(OC)c(OC)c4)ncnc23)c1 | > 50 µM | > 38 | 98% | 40% | 18% | 35% | 1440 nM | 34% | > 35 | > 20 µM | 
22 | 540 nM | 0% | COc1ccc(Nc2ncnc3c(N/N=C/c4cc(O)c(O)c(O)c4)ncnc23)cc1 | > 100 µM | > 185 | 94% | 12% | 3% | 48% | 200 nM | 41% | > 502 | > 20 µM | 
23 | 260 nM | 0% | COc1ccc(/C=N/Nc2ncnc3c(Nc4ccc(OC(F)(F)F)cc4)ncnc23)cc1O | > 10 µM | > 39 | 60% | 38% | 10% | 61% | 2540 nM | < 0% | 4 |  | 
24 | 350 nM | 0% | Oc1ccc(/C=N/Nc2ncnc3c(Nc4ccc(OC(F)(F)F)cc4)ncnc23)cc1O | > 10 µM | > 29 | 52% | 18% | 24% | 21% | 14900 nM | < 0% | 1 |  | 
